Assay results reported in US7091185B2, “Periodic antimicrobial peptides” (Dow Global Technologies Inc., priority 2003, dated 2006).
Like-named read-outs stand apart in the source and are kept apart here. Where no end group is shown, it is not given here.

Assays:
Staph. aureus ATCC 6538 = test: HMARQ biocidal kill activity; type: cell-based; settings: Staph. aureus ATCC 6538 (gram+)
In short: (§1)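 Inoculated sample matrix (200–300 μL) added to biocide in 96-well blocks alongside untreated controls; for kill-time runs organisms added after biocide. Viable counts by MPN serial 1:10 dilution in TSB with 50 μM resazurin indicator; values are ppm (μg/mL) giving 3.5 log kill versus untreated at 15 min or 24 h.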

P. aeruginosa ATCC 15442 = test: HMARQ biocidal kill activity; type: cell-based; settings: P. aeruginosa ATCC 15442 (gram−)
In short: as §1

Cr. Neoformans 32045 = type: cell-based
In short: (§2)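 Broth microdilution per NCCLS, adapted for fungi with Sabouraud Dextrose Broth; KFAK-repeat peptide multimers in two-fold dilutions from 1,000 to 1 μg/ml. Growth by OD620 after overnight incubation; IC50 by sigmoidal fit, in duplicate, repeated at least twice.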

C. albicans 10231 = type: cell-based; settings: 10231
In short: as §2

Red blood cells (RBC) = test: Red blood cell toxicity; type: cell-based
Red blood cell toxicity = type: cell-based; settings: red blood cells (RBC)
[1] = system: S. aureus (methicillin resistant) ATCC 33591
E. coli ATCC 2592 = settings: ATCC 2592
P. aeruginosa ATCC 10145 = settings: ATCC 10145
HeLa cell line = test: HeLa MTS cellular reduction toxicity assay; type: cell-based; settings: for TX50: 24 h, MTS
Method: The RBC protocol was from Blondelle (2000) and is described generally as follows: The toxicity toward the HeLa cell line was determined using a MTS (3-(4-5-dimethylthiazol-2-yl)-5-(3carboxymethoxyphenyl)-2-(4-sulfophenyl)-2H-tetrazolium, sodium salt) cellular reduction assay. MTS (2 mg/mL) was prepared in Dulbecco PBS (pH 7.35), filtered, aliquoted and stored at minus 20° C. In 96 well flat bottomed plates, cell suspensions (250 μL of 6×10^4 cell/mL in each well) were incubated for 48 h at 37° C. (5% CO2 incubator). The peptides (50 μL) were then added to the cell monolayer (following aspiration of the media from each well and addition of 50 μL of Dulbecco's Modified Eagles Medium) at varying concentrations derived from serial 2-fold dilutions, and the plates incubated for 24 h at 37° C. (5% CO2 incubator). Proliferation was then determined by adding a solution of phenazine methosulfate (PMS: 0.92 mg/mL in DPBS) to MTS at a 1:20 ration just prior to the assay. Twenty microliters MTS-PMS solution were added to each well and the plates incubated for 1 h at 37° C. (5% CO2 incubator). The relative percent toxicity was determined by comparing the absorbance at 490 nm of each peptide to the absorbance of cells without peptide. The TX50 (concentration required for 50% toxicity) was calculated using a sigmoidal curve fitting software (Graphpad Prism).

[2] = RBCs, concentration required for 50% toxicity, read-out: TX50
[3] = S. aureus (methicillin resistant) 33591, gram+

Substance	ppm needed for 3.5 log kill at 15 min (Staph. aureus ATCC 6538)	ppm needed for 3.5 log kill at 24 hr (Staph. aureus ATCC 6538)	ppm needed for 3.5 log kill at 15 min (P. aeruginosa ATCC 15442) [ppm]	IC50 (Cr. Neoformans 32045) [µg/mL]	MIC (Cr. Neoformans 32045) [µg/mL]	IC50 (C. albicans 10231) [µg/mL]	MIC (C. albicans 10231) [µg/mL]	% kill at 250 μg/ml (Red blood cells (RBC)) [%]	HC50 at 24 h (Red blood cell toxicity; [2]) [µg/mL]	IC50 ([1]; ATCC 33591) [µg/mL]	MIC ([1]; ATCC 33591) [µg/mL]	IC50 (E. coli ATCC 2592) [µg/mL]	MIC (E. coli ATCC 2592) [µg/mL]	IC50 (P. aeruginosa ATCC 10145) [µg/mL]	MIC (P. aeruginosa ATCC 10145) [µg/mL]	% kill at 500 μg/ml (HeLa cell line) [%]	TX50 (HeLa cell line) [µg/mL]	ppm needed for 3.5 log kill at 24 hr (P. aeruginosa ATCC 15442) [ppm]	further results
LKLKLKLKLKLKLKLKLKLK [LK (10), LK LK LK LK LK LK LK LK LK LK]	16 or less ppm	16 or less ppm	8	3.0	62 to 125	187	250 to 500	27	> 500	29	125 to 250	127	150 to 250	47	125	65.0	>500	–	–
LRLRLRLRLRLRLRLRLRLRLR [LR (11), LR LR LR LR LR LR LR LR LR LR LR]	16 ppm	8 ppm	–	3.3	62 to 125	>500	>500	41	450	39	125 to 250	96	125 to 250	>250	>250	66.6	>500	8	–
H-KKAKKKAKKKAKKKAKKKAKKKAKKKAK-OH [KKAK (7), KKAK KKAK KKAK KKAK KKAK KKAK KKAK]	>500 ppm	125 ppm	16	28	>63	>500	>500	−6	> 500	60	–	26	31 to 62	99	125	>87.9	>500	16	–
H-FKAFKAFKAFKAFKAFKAFKAFKAFKAFKA-OH [FKA (10), FKA FKA FKA FKA FKA FKA FKA FKA FKA FKA]	8 ppm	8 ppm	8	20	32 to 62	182	250 to 500	51	> 500	12	31 to 62	9	31 to 62	27	32	15.0	234	16	–
H-LKKLLKKLLKKLLKKLLKKL-OH [LKKL (5), LKKL LKKL LKKL LKKL LKKL]	>500 ppm	125 ppm	>500	55	62 to 125	211	>500	100	9	69	>250	49	62 to 125	27	62	−0.7	31	8	–
LRLRLRLRLRLRLR [LR (7), LR LR LR LR LR LR LR]	31 ppm	7.8 ppm	>63	1.8	4 to 8	182	250 to 500	–	> 500	–	–	15	31 to 62	109	125	86.5	>500	4	% kill at 250 μg/ml (Red blood cells (RBC); RBCs, 250 μg/ml): 15%; IC50 [1, 3]: 90 µg/mL; MIC [1, 3]: 250 to 500 µg/mL
H-LKLKLKLKLKLKLKLKLKLKLK-OH [LK (11), LK LK LK LK LK LK LK LK LK LK LK]	16 or less ppm	4 ppm	16	26	32 to 62	185	250 to 500	24	> 500	111	>250	50	>125	51	62	43.8	202	8	–
H-KFAKKFAKKFAKKFAKKFAKKFAKKFAKKFAK-OH [KFAK (8), KFAK KFAK KFAK KFAK KFAK KFAK KFAK KFAK]	>500 ppm	8 ppm	31	4.1	8 to 16	105	125 to 250	48	–	40	125 to 250	12	16 to 32	19	20	18.2	249	31	HC50 at 24 h (Red blood cell toxicity): > 500 µg/mL
H-KFKKFKKFKKFKKFKKFKKFKKFKKFKKFK-OH [KFK (10), KFK KFK KFK KFK KFK KFK KEK KFK KFK KFK]	4 ppm	500 ppm	8	30	40 to 62	104	125 to 250	3	> 500	59	>250	10	12 to 16	31	62	56.8	>500	8	–
LKKLLKKLLKKLLKKLLKKLLKKL [LKKL (6), LKKL LKKL LKKL LKKL LKKL LKKL]	4 ppm	125 ppm	>500	93	>125	213	250 to 500	100	11	98	>250	31	62 to 125	58	65	−1.3	26	8	–
FKAFKAFKAFKAFKAFKAFKA [FKA (7), FKA FKA FKA FKA FKA FKA FKA]	500 ppm	500 ppm	125	3.2	4 to 8	203	250 to 500	11	> 500	>500	>500	7	16 to 32	23	32	103.3	>500	63	–
